# Target: HCV RNA-dependent RNA polymerase NS5B (Δ21) (Hepatitis C virus genotype 1b, UniProt P26663)
# Assay: Assay for HCV RNA-dependent RNA polymerase activity (SPA, [3H]-GTP incorporation)
# Type: biochemical
# Conditions: read-out: Δ21 Activity (IC50 μM); 50 nM NS5B (Δ21), class symbols
# Description: Inhibitory activity of the present compounds against HCV RNA-dependent RNA polymerase was assayed according to the methods disclosed in United States Patent Application US2004/038993, content of which is incorporated herein by reference; and those described in Ferrari, E.; Wright-Minogue, J.; Fang, J. W. S.; Baroudy, B. M.; Lau, J. Y. N.; Hong, Z. J. Virol. 1999, 73, 1649.
# Briefly, 50 μl reactions containing 20 mM HEPES (pH 7.3), 7.5 mM DTT, 20 units/ml RNasIN, 0.5 μg/ml biotinylated oligoG12, 5 μg/ml polyC, 5 μM GTP, 20 μCi/ml [^3H]-GTP, 10 mM MgCl2, 60 mM NaCl, 100 μg/ml BSA, and 50 nM NS5B (Δ21) were incubated at room temperature for three hours in 96-well plates with or without test compounds. Assay was terminated by the addition of 50 μl 10 mg/ml streptavidin-coated SPA beads supplemented with 100 mM EDTA, and the incorporation of labeled GTP determined by a TopCount Scintillation Counter. IC50 values were calculated from single experiments using 11 serial 2-fold dilutions (0.05-50 μM), and data were considered reliable only when the IC50 value of a positive internal control was within standard deviation range.
# Chain of HCV RNA-dependent RNA polymerase NS5B (Δ21) (P26663 2420-2989, stated change not applied): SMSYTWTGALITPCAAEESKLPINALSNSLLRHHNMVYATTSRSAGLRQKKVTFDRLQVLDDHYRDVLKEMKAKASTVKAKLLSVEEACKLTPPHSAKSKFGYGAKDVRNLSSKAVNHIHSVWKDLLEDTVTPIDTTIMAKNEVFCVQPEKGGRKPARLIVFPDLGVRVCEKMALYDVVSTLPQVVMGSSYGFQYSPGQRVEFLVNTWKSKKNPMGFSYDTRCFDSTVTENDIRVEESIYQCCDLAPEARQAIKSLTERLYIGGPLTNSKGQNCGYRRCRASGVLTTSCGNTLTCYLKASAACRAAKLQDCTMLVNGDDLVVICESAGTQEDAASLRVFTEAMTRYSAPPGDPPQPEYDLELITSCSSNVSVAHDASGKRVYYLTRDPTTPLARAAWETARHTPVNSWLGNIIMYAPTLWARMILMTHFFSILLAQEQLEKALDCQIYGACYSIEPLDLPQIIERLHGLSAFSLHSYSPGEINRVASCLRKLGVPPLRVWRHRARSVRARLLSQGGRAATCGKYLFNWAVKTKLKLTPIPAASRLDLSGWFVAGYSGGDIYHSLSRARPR
row,SMILES,IC50 [µM]
1,O=C(Cn1nc(CO)cc1C(=O)N[C@H]1CCCC[C@@H]1OCc1ccccc1)N[C@H]1CCCC[C@@H]1OCc1ccccc1 [Compound 161],0.1 to 1
2,Cc1nn(C)c(Cl)c1S(=O)(=O)Nc1cc(C(=O)N[C@H]2CCCC[C@@H]2OCc2ccccc2)n(CC(=O)N[C@H]2CCCC[C@@H]2OCc2ccccc2)n1 [Compound 112],0.1 to 1
3,CCOC(=O)c1nc(C(=O)N[C@H]2CCCC[C@@H]2OCc2ccccc2)n(CC(=O)N[C@H]2CCCC[C@@H]2OCc2ccccc2)n1 [Compound 141],0.1 to 1
4,O=C(Cn1nc(NC(=O)c2ccccc2)cc1C(=O)N[C@H]1CCCC[C@@H]1OCc1ccccc1)N[C@H]1CCCC[C@@H]1OCc1ccccc1 [Compound 91],0.1 to 1
5,O=C(Cn1nc(C(=O)NC2CCCC2)cc1C(=O)N[C@H]1CCCC[C@@H]1OCc1ccccc1)N[C@H]1CCCC[C@@H]1OCc1ccccc1 [Compound 128],0.1 to 1
6,O=C(Cn1nc(C(=O)NCCc2ccccc2)cc1C(=O)N[C@H]1CCCC[C@@H]1OCc1ccccc1)N[C@H]1CCCC[C@@H]1OCc1ccccc1 [Compound 131],0.1 to 1
7,CC1CCC(OCc2ccccc2)C(NC(=O)c2cc(C(=O)O)nn2CS(=O)(=O)N[C@H]2CCCC[C@@H]2OCc2ccccc2)C1 (stereo partly drawn) [Compound 89],0.1 to 1
8,CC(C)S(=O)(=O)Nc1cc(C(=O)N[C@H]2CCCC[C@@H]2OCc2ccccc2)n(CC(=O)N[C@H]2CCCC[C@@H]2OCc2ccccc2)n1 [Compound 78],0.1 to 1
9,O=C(Cn1nc(C(=O)NCCCCCC(=O)ON2C(=O)CCC2=O)cc1C(=O)N[C@H]1CCCC[C@@H]1OCc1ccccc1)N[C@H]1CCCC[C@@H]1OCc1ccccc1 [Compound 151],0.1 to 1
10,O=C(Cn1nc(C(=O)N2CCc3ccccc3C2)cc1C(=O)N[C@H]1CCCC[C@@H]1OCc1ccccc1)N[C@H]1CCCC[C@@H]1OCc1ccccc1 [Compound 51],0.1 to 1
11,CCOC(=O)c1cc(C(=O)N[C@H]2CCCC[C@@H]2OCc2ccccc2)n(CC(=O)Nc2ccccc2Oc2ccc(Cl)c(C)c2)n1 [Compound 136],0.1 to 1
12,Cc1c(S(=O)(=O)Nc2cc(C(=O)N[C@H]3CCCC[C@@H]3OCc3ccccc3)n(CC(=O)N[C@H]3CCCC[C@@H]3OCc3ccccc3)n2)sc2ccc(Cl)cc12 [Compound 90],0.1 to 1
13,O=C(Cn1nc(NC(=O)C(F)(F)F)cc1C(=O)N[C@H]1CCCC[C@@H]1OCc1ccccc1)N[C@H]1CCCC[C@@H]1OCc1ccccc1 [Compound 75],0.1 to 1
14,O=C(Cn1nc(NC(=O)Nc2ccccc2)cc1C(=O)N[C@H]1CCCC[C@@H]1OCc1ccccc1)N[C@H]1CCCC[C@@H]1OCc1ccccc1 [Compound 102],0.1 to 1
15,O=C(Cn1nccc1C(=O)N[C@H]1CCCC[C@@H]1OCc1ccccc1)N[C@H]1CCCC[C@@H]1OCc1ccccc1 [Compound 134],0.1 to 1
16,CS(=O)(=O)NC(=O)c1cc(C(=O)N[C@H]2CCCC[C@@H]2OCc2ccccc2)n(CC(=O)N[C@H]2CCCC[C@@H]2OCc2ccccc2)n1 [Compound 155],0.1 to 1
17,O=C(Cn1nc(C(=O)NCCCc2ccccc2)cc1C(=O)N[C@H]1CCCC[C@@H]1OCc1ccccc1)N[C@H]1CCCC[C@@H]1OCc1ccccc1 [Compound 104],0.1 to 1

# Same assay, conditions: Δ21 Activity (IC50 μM), 50 nM NS5B (Δ21), class symbols
row,SMILES,IC50 [µM]
1,O=C(Cn1nc(NS(=O)(=O)c2cccc(Br)c2)cc1C(=O)N[C@H]1CCCC[C@@H]1OCc1ccccc1)N[C@H]1CCCC[C@@H]1OCc1ccccc1 [Compound 36],0.05 to 0.1
2,O=C(O)c1cc(C(=O)N[C@H]2CCCC[C@@H]2OCc2ccccc2)n(CC(=O)N2CCC[C@@H]2COCc2ccccc2)n1 [Compound 198],> 1
3,CCOC(=O)c1cc(C(=O)N(C)[C@H]2CCCC[C@@H]2OCc2ccccc2)n(CC(=O)N[C@H]2CCCC[C@@H]2OCc2ccccc2)n1 [Compound 181],> 1
4,O=C(Cn1nc(C(=O)O)cc1C(=O)Nc1cc(C(F)(F)F)ccc1OCc1ccccc1)N[C@H]1CCCC[C@@H]1OCc1ccccc1 [Compound 14],< 0.05
5,O=C(Cn1nc(NS(=O)(=O)C(F)(F)F)cc1C(=O)N[C@H]1CCCC[C@@H]1OCc1ccccc1)N[C@H]1CCCC[C@@H]1OCc1ccccc1 [Compound 26],0.05 to 0.1
6,"O=C(Cn1nc(-c2nnn[nH]2)cc1C(=O)N[C@H]1CCCC[C@@H]1OCc1ccccc1)N[C@H]1CCCC[C@@H]1OCc1ccccc1 (stereo in doubt) [Compound 18, 2-[(2-benzyloxy-cyclohexylcarbamoyl)-methyl]-5-(1H-tetrazol-5-yl)-2H-pyrazole-3-carboxylic acid (2-benzyloxy-cyclohexyl)-amide]",0.05 to 0.1
7,N#CNC(=O)c1cc(C(=O)N[C@H]2CCCC[C@@H]2OCc2ccccc2)n(CC(=O)N[C@H]2CCCC[C@@H]2OCc2ccccc2)n1 [Compound 15],< 0.05
8,Nc1ccccc1Oc1ccccc1CNC(=O)c1cc(C(=O)O)nn1CC(=O)N[C@H]1CCCC[C@@H]1OCc1ccccc1 [Compound 209],> 1
9,O=C(Cn1nc(C(=O)NC2CCCc3ccccc32)cc1C(=O)N[C@H]1CCCC[C@@H]1OCc1ccccc1)N[C@H]1CCCC[C@@H]1OCc1ccccc1 (stereo partly drawn) [Compound 173],> 1
10,COc1ccc(NC(=O)c2cc(C(=O)O)nn2CC(=O)N[C@H]2CCCC[C@@H]2OCc2ccccc2)c(OCc2ccccc2)c1 [Compound 201],> 1
11,Cc1ccc(OCc2ccccc2)c(NC(=O)c2cc(NS(=O)(=O)c3ccc(Cl)cc3)nn2CC(=O)N[C@H]2CCCC[C@@H]2OCc2ccccc2)c1 [Compound 44],0.05 to 0.1
12,O=C(Cn1nc(C(=O)Cc2ccccc2)cc1C(=O)N[C@H]1CCCC[C@@H]1OCc1ccccc1)N[C@H]1CCCC[C@@H]1OCc1ccccc1 [Compound 182],> 1
13,Cc1ccc(OCc2ccsc2)c(NC(=O)c2cc(C(=O)O)nn2CC(=O)N[C@H]2CCCC[C@@H]2OCc2ccccc2)c1 [Compound 8],< 0.05
14,COc1ccc(S(=O)(=O)Nc2cc(C(=O)N[C@H]3CCCC[C@@H]3OCc3ccccc3)n(CC(=O)N[C@H]3CCCC[C@@H]3OCc3ccccc3)n2)cc1 [Compound 41],0.05 to 0.1
15,C[C@H](NC(=O)c1cc(C(=O)N[C@H]2CCCC[C@@H]2OCc2ccccc2)n(CC(=O)N[C@H]2CCCC[C@@H]2OCc2ccccc2)n1)c1cccc2ccccc12 [Compound 27],0.05 to 0.1
16,CCOC(=O)c1cc(C(=O)N[C@H]2CCCC[C@@H]2OCc2ccccc2)n(CC(=O)Nc2cc(C)ccc2OCC2CCC2)n1 [Compound 206],> 1
17,O=C(Cn1nc(NS(=O)(=O)c2ccc(Cl)cc2)cc1C(=O)N[C@H]1CCCC[C@@H]1OCc1ccccc1)N[C@H]1CCCC[C@@H]1OCc1ccccc1 [Compound 11],< 0.05

# Same assay, conditions: Δ21 Activity (IC50 μM), 50 nM NS5B (Δ21), numeric values
row,SMILES,IC50 [µM]
1,O=C(Cn1nc(NS(=O)(=O)c2ccc(Br)cc2)cc1C(=O)N[C@H]1CCCC[C@@H]1OCc1ccccc1)N[C@H]1CCCC[C@@H]1OCc1ccccc1 [drawing 252],0.041
2,O=C(Cn1nc(-c2nnn[nH]2)cc1C(=O)N[C@H]1CCCC[C@@H]1OCc1ccccc1)N[C@H]1CCCC[C@@H]1OCc1ccccc1,0.05
3,Cc1ccc(OCc2ccsc2)c(NC(=O)c2cc(C(=O)O)nn2CC(=O)N[C@H]2CCCC[C@@H]2OCc2ccccc2)c1 [drawing 247],0.032
4,N#CNC(=O)c1cc(C(=O)Nc2ccccc2OCc2ccccc2)n(CC(=O)N[C@H]2CCCC[C@@H]2OCc2ccccc2)n1 [drawing 245],0.024
5,C[C@@H](NC(=O)c1cc(C(=O)N[C@H]2CCCC[C@@H]2OCc2ccccc2)n(CC(=O)N[C@H]2CCCC[C@@H]2OCc2ccccc2)n1)c1cccc2ccccc12 [drawing 246],0.15

# Reference: patent publication US7425640B2, “Substituted 5-carboxyamide pyrazoles and [1,2,4]triazoles as antiviral agents” (priority 2004, dated 2008)
